# Measured values reported in patent publication US8501946B2 (Glaxo Group Limited, priority 2009, dated 2013).
# Biological target: T1, human recombinant P2X7 receptors (Homo sapiens, UniProt Q99572)
# T1 construct: expressed in transfected cells
# T1 sequence (Q99572 1-595): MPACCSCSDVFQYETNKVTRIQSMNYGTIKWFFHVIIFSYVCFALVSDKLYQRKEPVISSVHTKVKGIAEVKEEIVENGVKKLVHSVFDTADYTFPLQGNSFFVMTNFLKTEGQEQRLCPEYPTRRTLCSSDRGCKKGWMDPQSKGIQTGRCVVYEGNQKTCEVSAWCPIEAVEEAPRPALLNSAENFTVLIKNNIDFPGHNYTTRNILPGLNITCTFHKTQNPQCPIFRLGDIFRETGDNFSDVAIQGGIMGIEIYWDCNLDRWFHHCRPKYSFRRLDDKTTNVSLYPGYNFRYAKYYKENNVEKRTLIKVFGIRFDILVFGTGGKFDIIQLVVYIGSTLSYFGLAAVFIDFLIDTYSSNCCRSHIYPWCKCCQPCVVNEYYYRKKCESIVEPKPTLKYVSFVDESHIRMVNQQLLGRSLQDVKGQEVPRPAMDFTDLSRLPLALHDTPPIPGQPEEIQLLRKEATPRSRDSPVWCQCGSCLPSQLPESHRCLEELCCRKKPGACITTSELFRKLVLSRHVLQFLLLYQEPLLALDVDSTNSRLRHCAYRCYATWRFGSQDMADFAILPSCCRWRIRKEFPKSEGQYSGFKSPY
# Assay: Ethidium Accumulation Assay 1 (HEK293 cells, ATP-induced ethidium uptake)
# Format: cell-based
# Details: HEK293 cells expressing human P2X7; 1 mM ATP; sometimes mean of more than one measurement; read-out: Assay 1 (antagonist pIC50 for blocking ATP responses) (converted)
# Experimental: Eithidium Accumulation Assay 1
# Studies were performed using NaCl assay buffer of the following composition: 140 mM NaCl, 10 mM HEPES [4-(2-hydroxyethyl)-1-piperazine-1-ethanesulfonic acid], 5 mM N-methyl-D-glucamine, 5.6 mM KCl, 10 mM D-glucose, 0.5 mM CaCl2 (pH 7.4).
# Human Embryonic Kidney (HEK) 293 cells, stably expressing human recombinant P2X7 receptors, were grown in poly-D-lysine pretreated 96 well plates for 18-24 hours.
# The cells were washed twice with 350 μl of the assay buffer, before addition of 50 μl of the assay buffer containing the putative P2X7 receptor antagonist compound. (A small amount of dimethyl sulfoxide, for initially dissolving the compound, is optionally used and present in this 50 μl test compound sample.) The cells were then incubated at room temperature (19-21° C.) for 30 min before addition of ATP and ethidium (100 μM final assay concentration). The ATP concentration was chosen to be close to the EC80 for the receptor type and was 1 mM for studies on the human P2X7 receptor. Incubations were continued for 8 or 16 min and were terminated by addition of 25 μl of 1.3M sucrose containing 4 mM of the P2X7 receptor antagonist Reactive Black 5 (Aldrich). […] Antagonist pIC50 values for blocking ATP responses were determined using iterative curve fitting techniques.
row,IC50,Compound
1,< 100 nM,"O=C(c1cccc(F)c1F)N1CCn2c(nnc2-c2ccccn2)C1 [Example 88, 7-[(2,3-difluorophenyl)carbonyl]-3-(2-pyridinyl)-5,6,7,8-tetrahydro[1,2,4]triazolo [4,3-a]pyrazine]"
2,< 10 nM,"O=C(c1cccc(Cl)c1Cl)N1CCn2c(nnc2-c2ccc[nH]2)C1 [Example 64, 7-[(2,3-dichlorophenyl)carbonyl]-3-(1H-pyrrol-2-yl)-5,6,7,8-tetrahydro[1,2,4]triazolo [4,3-a]pyrazine]"
3,< 100 nM,"O=C(c1cccc(C(F)(F)F)c1Cl)N1CCn2c(nnc2-c2ccc(F)cc2F)C1 [Example 24, 7-{[2-Chloro-3-(trifluoromethyl)phenyl]carbonyl}-3-(2,4-difluorophenyl)-5,6,7,8-tetrahydro[1,2,4]triazolo[4,3-a]pyrazine]"
4,< 100 nM,"O=C(c1cccc(C(F)(F)F)c1Cl)N1CCn2c(nnc2-c2ccncc2)C1 [Example 10, 7-{[2-Chloro-3-(trifluoromethyl)phenyl]carbonyl}-3-(4-pyridinyl)-5,6,7,8-tetrahydro[1,2,4]triazolo[4,3-a]pyrazine]"
5,< 100 nM,"O=C(c1ccc(F)cc1Cl)N1CCn2c(nnc2-c2ccccc2)C1 [Example 30, 7-[(2-Chloro-4-fluorophenyl)carbonyl]-3-phenyl-5,6,7,8-tetrahydro[1,2,4]triazolo[4,3-a]pyrazine]"
6,< 100 nM,"Cn1nccc1-c1nnc2n1CCN(C(=O)c1cccc(Cl)c1Cl)C2 [Example 81, 7-[(2,3-dichlorophenyl)carbonyl]-3-(1-methyl-1H-pyrazol-5-yl)-5,6,7,8-tetrahydro[1,2,4]triazolo [4,3-]pyrazine]"
7,< 100 nM,"O=C(c1cccc(C(F)(F)F)c1F)N1CCn2c(Br)nnc2C1 [Example 9, 3-bromo-7-{[2-fluoro-3-(trifluoromethyl)phenyl]carbonyl}-5,6,7,8-tetrahydro[1,2,4]triazolo [4,3-a]pyrazine]"
8,< 100 nM,"O=C(c1ccccc1Cl)N1CCn2c(nnc2-c2ccc(F)cn2)C1 [Example 118, 7-[(2-chlorophenyl)carbonyl]-3-(5-fluoro-2-pyridinyl)-5,6,7,8-tetrahydro[1,2,4]triazolo[4,3-a]pyrazine]"
9,< 100 nM,"O=C(c1ccc(F)cc1F)N1CCn2c(nnc2-c2ccccn2)C1 [Example 78, 7-[(2,4-difluorophenyl)carbonyl]-3-(2-pyridinyl)-5,6,7,8-tetrahydro[1,2,4]triazolo [4,3-a]pyrazine]"
10,< 100 nM,"O=C(c1cccc(C(F)(F)F)c1Cl)N1CCn2c(nnc2N2CCC2)C1 [Example 22, 3-(1-azetidinyl)-7-{[2-chloro-3-(trifluoromethyl)phenyl]carbonyl}-5,6,7,8-tetrahydro[1,2,4]triazolo [4,3-a]pyrazine]"
11,< 100 nM,"Cc1cc(-c2nnc3n2CCN(C(=O)c2cccc(C(F)(F)F)c2Cl)C3)no1 [Example 36, 7-{[2-chloro-3-(trifluoromethyl)phenyl]carbonyl}-3-(5-methyl-3-isoxazolyl)-5,6,7,8-tetrahydro[1,2,4]triazolo [4,3-a]pyrazine]"
12,< 100 nM,"O=C(c1ccccc1Cl)N1CCn2c(nnc2-c2cnccn2)C1 [Example 120, 7-[(2-chlorophenyl)carbonyl]-3-(2-pyrazinyl)-5,6,7,8-tetrahydro[1,2,4]triazolo[4,3-a]pyrazine]"
13,< 10 nM,"O=C(c1ccc(F)cc1Cl)N1CCn2c(nnc2-c2ncccc2F)C1 [Example 31, 7-[(2-chloro-4-fluorophenyl)carbonyl]-3-(3-fluoro-2-pyridinyl)-5,6,7,8-tetrahydro[1,2,4]triazolo [4,3-a]pyrazine]"
14,< 501 nM,"Cc1nc(-c2nnc3n2CCN(C(=O)c2ccc(F)cc2Cl)C3)cs1 [Example 136, 7-[(2-chloro-4-fluorophenyl)carbonyl]-3-(2-methyl-1,3-thiazol-4-yl)-5,6,7,8-tetrahydro[1,2,4]triazolo[4,3-a]pyrazine]"
15,< 501 nM,"Cc1cc(-c2nnc3n2CCN(C(=O)c2ccc(F)cc2Cl)C3)no1 [Example 71, 7-[(2-chloro-4-fluorophenyl)carbonyl]-3-(5-methyl-3-isoxazolyl)-5,6,7,8-tetrahydro[1,2,4]triazolo [4,3-a]pyrazine]"
16,< 501 nM,"O=C(c1c(Cl)cccc1Cl)N1CCn2c(nnc2-c2ccccn2)C1 [Example 89, 7-[(2,6-dichlorophenyl)carbonyl]-3-(2-pyridinyl)-5,6,7,8-tetrahydro[1,2,4]triazolo [4,3-a]pyrazine]"
17,< 10 nM,"Cn1ccc(-c2nnc3n2CCN(C(=O)c2cccc(C(F)(F)F)c2Cl)C3)n1 [Example 27, 7-{[2-chloro-3-(trifluoromethyl)phenyl]carbonyl}-3-(1-methyl-1H-pyrazol-3-yl)-5,6,7,8-tetrahydro[1,2,4]triazolo [4,3-a]pyrazine]"
18,< 10 nM,"O=C(c1cccc(Cl)c1Cl)N1CCn2c(nnc2-c2ccc(F)cc2)C1 [Example 99, 7-[(2,3-dichlorophenyl)carbonyl]-3-(4-fluorophenyl)-5,6,7,8-tetrahydro[1,2,4]triazolo [4,3-a]pyrazine]"
19,< 10 nM,"Cn1cccc1-c1nnc2n1CCN(C(=O)c1cccc(C(F)(F)F)c1Cl)C2 [Example 29, 7-{[2-chloro-3-(trifluoromethyl)phenyl]carbonyl}-3-(1-methyl-1H-pyrrol-2-yl)-5,6,7,8-tetrahydro[1,2,4]triazolo [4,3-a]pyrazine]"
20,< 10 nM,"O=C(c1ccc(Cl)c(F)c1Cl)N1CCn2c(nnc2-c2ccc(F)cn2)C1 [Example 110, 7-[(2,4-Dichloro-3-fluorophenyl)carbonyl]-3-(5-fluoro-2-pyridinyl)-5,6,7,8-tetrahydro[1,2,4]triazolo[4,3-a]pyrazine]"
21,< 501 nM,"Cc1ncccc1-c1nnc2n1CCN(C(=O)c1ccc(F)cc1Cl)C2 [Example 74, 7-[(2-chloro-4-fluorophenyl)carbonyl]-3-(2-methyl-3-pyridinyl)-5,6,7,8-tetrahydro[1,2,4]triazolo [4,3-a]pyrazine]"
22,< 10 nM,"O=C(c1cccc(C(F)(F)F)c1Cl)N1CCn2c(nnc2-c2ccc[nH]2)C1 [Example 38, 7-{[2-chloro-3-(trifluoromethyl)phenyl]carbonyl}-3-(1H-pyrrol-2-yl)-5,6,7,8-tetrahydro[1,2,4]triazolo [4,3-a]pyrazine]"
23,< 10 nM,"O=C(c1ccc(F)cc1Cl)N1CCn2c(nnc2-c2ncccn2)C1 [Example 47, 7-[(2-chloro-4-fluorophenyl)carbonyl]-3-(2-pyrimidinyl)-5,6,7,8-tetrahydro[1,2,4]triazolo [4,3-a]pyrazine]"
24,< 100 nM,"O=C(c1ccc(F)c(Cl)c1)N1CCn2c(nnc2-c2cnccn2)C1 [Example 105, 7-[(3-chloro-4-fluorophenyl)carbonyl]-3-(2-pyrazinyl)-5,6,7,8-tetrahydro[1,2,4]triazolo [4,3-a]pyrazine]"
25,< 100 nM,"O=C(c1ccc(F)cc1Cl)N1CCn2c(nnc2-c2cccc(Cl)c2Cl)C1 [Example 130, 7-[(2-chloro-4-fluorophenyl)carbonyl]-3-(2,3-dichlorophenyl)-5,6,7,8-tetrahydro[1,2,4]triazolo[4,3-a]pyrazine]"
26,< 100 nM,"O=C(c1ccc(F)cc1Cl)N1CCn2c(nnc2-c2ccc(F)cn2)C1 [Example 40, 7-[(2-chloro-4-fluorophenyl)carbonyl]-3-(5-fluoro-2-pyridinyl)-5,6,7,8-tetrahydro[1,2,4]triazolo [4,3-a]pyrazine]"
27,< 10 nM,"O=C(c1cccc(C(F)(F)F)c1Cl)N1CCn2c(nnc2-c2cccnc2)C1 [Example 16, 7-{[2-Chloro-3-(trifluoromethyl)phenyl]carbonyl}-3-(3-pyridinyl)-5,6,7,8-tetrahydro[1,2,4]triazolo[4,3-a]pyrazine]"
28,< 100 nM,"N#Cc1ccccc1C(=O)N1CCn2c(nnc2-c2ccccn2)C1 [Example 87, 2-{[3-(2-pyridinyl)-5,6-dihydro[1,2,4]triazolo[4,3-a]pyrazin-7(8H)-yl]carbonyl}benzonitrile]"
29,< 10 nM,"Cn1ccc(-c2nnc3n2CCN(C(=O)c2cccc(Cl)c2Cl)C3)n1 [Example 63, 7-[(2,3-dichlorophenyl)carbonyl]-3-(1-methyl-1H-pyrazol-3-yl)-5,6,7,8-tetrahydro[1,2,4]triazolo [4,3-a]pyrazine]"
30,< 10 nM,"Cc1ccnc(-c2nnc3n2CCN(C(=O)c2cccc(C(F)(F)F)c2Cl)C3)c1 [Example 56, 7-{[2-chloro-3-(trifluoromethyl)phenyl]carbonyl}-3-(4-methyl-2-pyridinyl)-5,6,7,8-tetrahydro[1,2,4]triazolo [4,3-a]pyrazine]"
